Measured values from patent US7875645B2, “Method for the treatment of CNS disorders with substituted 2-imidazoles or imidazole derivatives” (Hoffman-La Roche Inc., priority 2006, dated 2011).
Structures can show the parent of a compound that is named as a salt.

Tested on: not given
Experiment: not given
Details: not given

| Structure (SMILES) | melting point [°C] |
| --- | --- |
| Brc1ccc(CC2=NCCN2)c2ccccc12 [Example 104, 2-(4-Bromo-naphthalen-1-ylmethyl)-4,5-dihydro-1H-imidazole] | 133 to 135 |

Target: T1, TAAR1 (Mus musculus, UniProt Q923Y8)
T1 construct: expressed in transfected cells; host or cells: HEK293 (ATCC # CRL-1573), stably transfected with pIRESneo2 expression plasmid; membranes prepared
T1 sequence (Q923Y8 whole entry): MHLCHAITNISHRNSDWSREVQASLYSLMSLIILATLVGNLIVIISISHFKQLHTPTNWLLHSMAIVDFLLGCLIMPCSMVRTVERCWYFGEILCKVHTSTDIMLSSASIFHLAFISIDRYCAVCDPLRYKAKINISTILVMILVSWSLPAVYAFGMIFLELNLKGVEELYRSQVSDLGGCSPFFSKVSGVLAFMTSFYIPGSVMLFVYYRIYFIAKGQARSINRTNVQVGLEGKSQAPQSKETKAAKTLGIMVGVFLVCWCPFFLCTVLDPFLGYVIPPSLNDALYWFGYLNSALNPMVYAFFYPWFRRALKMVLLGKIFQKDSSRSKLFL
Experiment: Radioligand binding assay on membranes of HEK293 cells stably expressing TAAR1
Details: mouse TAAR1; radioligand [3H]-rac-2-(1,2,3,4-tetrahydro-1-naphthyl)-2-imidazoline at 60 nM; 4° C., 30 min
Experimental: For the construction of expression plasmids the coding sequences of human, rat and mouse TAAR 1 were amplified from genomic DNA essentially as described by Lindemann et al.. The Expand High Fidelity PCR System (Roche Diagnostics) was used with 1.5 mM Mg^2+ and purified PCR products were cloned into pCR2.1-TOPO cloning vector (Invitrogen) following the instructions of the manufacturer. PCR products were subcloned into the pIRESneo2 vector (BD Clontech, Palo Alto, Calif.), and expression vectors were sequence verified before introduction in cell lines.
For the generation of stably transfected cell lines HEK293 cells were transfected with the pIRESneo2 expression plasmids containing the TAAR coding sequences (described above) with Lipofectamine 2000 (Invitrogen) according to the instructions of the manufacturer, and 24 hrs post transfection the culture medium was supplemented with 1 mg/ml G418 (Sigma, Buchs, Switzerland). After a culture period of about 10 d clones were isolated, expanded and tested for responsiveness to trace amines (all compounds purchased from Sigma) with the cAMP Biotrak Enzyme immunoassay (EIA) System (Amersham) following the non-acetylation EIA procedure provided by the manufacturer.
Cells at confluence were rinsed with ice-cold phosphate buffered saline without Ca^2+ and Mg^2+ containing 10 mM EDTA and pelleted by centrifugation at 1000 rpm for 5 min at 4° C. The pellet was then washed twice with ice-cold phosphate buffered saline and cell pellet was frozen immediately by immersion in liquid nitrogen and stored until use at −80° C. Cell pellet was then suspended in 20 ml HEPES-NaOH (20 mM), pH 7.4 containing 10 mM EDTA, and homogenized with a Polytron (PT 3000, Kinematica) at 10,000 rpm for 10 s. The homogenate was centrifuged at 48,000×g for 30 min at 4° C. and the pellet resuspended in 20 ml HEPES-NaOH (20 mM), pH 7.4 containing 0.1 mM EDTA (buffer A), and homogenized with a Polytron at 10,000 rpm for 10 s. The homogenate was then centrifuged at 48,000×g for 30 min at 4° C. and the pellet resuspended in 20 ml buffer A, and homogenized with a Polytron at 10,000 rpm for 10 s. Protein concentration was determined by the method of Pierce (Rockford, Ill.). The homogenate was then centrifuged at 48,000×g for 10 min at 4° C., resuspended in HEPES-NaOH (20 mM), pH 7.0 including MgCl2 (10 mM) and […] homogenized with a Polytron at 10,000 rpm for 10 s.
Binding assay was performed at 4° C. in a final volume of 1 ml, and with an incubation time of 30 min. […] Non-specific binding was defined as the amount of [^3H]-rac-2-(1,2,3,4-tetrahydro-1-naphthyl)-2-imidazoline bound in the presence of the appropriate unlabelled ligand (10 μM). Competing ligands were tested in a wide range of concentrations (10 pM-30 μM). […] Each experiment was performed in duplicate. Al incubations were terminated by rapid filtration through UniFilter-96 plates (Packard Instrument Company) and glass filter GF/C, pre-soaked for at least 2 h in polyethylenimine 0.3%, and using a Filtermate 96 Cell Harvester (Packard Instrument Company). The tubes and filters were then washed 3 times with 1 ml aliquots of cold buffer B. Filters were not dried and soaked in Ultima gold (45 μl/well, Packard Instrument Company) and bound radioactivity was counted by a TopCount Microplate Scintillation Counter (Packard Instrument Company).

| Structure (SMILES) | Ki [µM] |
| --- | --- |
| Brc1ccc(CC2=NCCN2)c2ccccc12 [Example 104, 2-(4-Bromo-naphthalen-1-ylmethyl)-4,5-dihydro-1H-imidazole] | 0.008 |
| c1ccc2c(CC3=NCCN3)cccc2c1 [Example 140, 2-Naphthalen-1-ylmethyl-4,5-dihydro-1H-imidazole, reference compound] | 0.007 |
| Cc1sc(C)c(Cc2ncc[nH]2)c1C [Example 110, 2-(2,4,5-Trimethyl-thiophen-3-ylmethyl)-1H-imidazole] | 0.021 |
| COc1cccc(Cl)c1CC1=NCCN1 [Example 55, 2-(2-Chloro-6-methoxy-benzyl)-4,5-dihydro-1H-imidazole] | 0.017 |
| CCc1ccc(Cl)c(CC)c1CC1=NCCN1 [Example 196, 2-(3-Chloro-2,6-diethyl-benzyl)-4,5-dihydro-1H-imidazole] | 0.023 |
| CCc1cccc(OC)c1CC1=NCCN1 [Example 9, 2-(2-Ethyl-6-methoxy-benzyl)-4,5-dihydro-1H-imidazole] | 0.01 |
| Brc1ccccc1CC1=NCCN1 [Example 124, 2-(2-Bromo-benzyl)-4,5-dihydro-1H-imidazole] | 0.044 |
| Brc1c(CC2=NCCN2)ccc2ccccc12 [Example 175, 2-(1-Bromo-naphthalen-2-ylmethyl)-4,5-dihydro-1H-imidazole] | 0.011 |
| CCc1ccc(Br)c(CC)c1Cc1ncc[nH]1 [Example 77, 2-(3-Bromo-2,6-diethyl-benzyl)-1H-imidazole] | 0.026 |
| CCc1ccc(Oc2ccccc2)c(CC)c1Cc1ncc[nH]1 [Example 220, 2-(2,6-Diethyl-3-phenoxy-benzyl)-1H-imidazole] | 0.013 |
| Clc1cccc(CC2=NCCN2)c1Cl [Example 17, 2-(2,3-Dichloro-benzyl)-4,5-dihydro-1H-imidazole] | 0.021 |
| CCc1cccc(CC)c1Cc1ncc[nH]1 [Example 70, 2-(2,6-Diethyl-benzyl)-1H-imidazole] | 0.025 |
| COc1cccc(C)c1CC1=NCCN1 [Example 10, 2-(2-Methoxy-6-methyl-benzyl)-4,5-dihydro-1H-imidazole] | 0.023 |
| c1cc(CC2=NCCN2)c2ccoc2c1 [Example 168, 2-Benzofuran-4-ylmethyl-4,5-dihydro-1H-imidazole hydrochloride] | 0.045 |
| COc1cc(Br)c(C)c(CC2=NCCN2)c1 [Example 58, 2-(3-Bromo-5-methoxy-2-methyl-benzyl)-4,5-dihydro-1H-imidazole] | 0.03 |
| Clc1ccc(CC2=NCCN2)cc1Cl [Example 121, 2-(3,4-Dichloro-benzyl)-4,5-dihydro-1H-imidazole] | 0.023 |
| CCOc1ccc(CC)c(Cc2ncc[nH]2)c1CC [Example 217, 2-(3-Ethoxy-2,6-diethyl-benzyl)-1H-imidazole] | 0.024 |
